Laboratory results taken from patent US9198909B1, “Materials and methods for inhibiting mamalian S-nitrosoglutathione reductase” (Indiana University Research and Technology Corporation, priority 2007, dated 2015).

Columns and labels:
GSNOR [1] = biological target: T1, GSNOR (Homo sapiens, UniProt P11766); assay: Dead-end inhibition studies of GSNOR; assay type: biochemical; set-up: made in house; host or cells: E. coli; settings: pH 7.5, 25° C., GSNO held at 10 μM
Experimental: Referring now to Table 3, inhibition experiments were performed at 25° C. in 50 mM potassium phosphate (pH 7.5) including 0.1 mM EDTA. A minimum of five concentrations of the varied substrate and three inhibitor concentrations were used for each experiment. NADH and GSNO concentrations were held at 15 or 10 μM, respectively when present as a constant substrate in the assay. The Kis and Kii values are respectively the slope and intercept inhibition constants and are listed along with their associated standard errors. All data were fit to a competitive (C), noncompetitive (NC), or uncompetitive (UC) inhibition models. The type of inhibition shown in the table represents the best fit of the data to the given model as judged from F statistics analysis. […] The dissociation constant was measured at 25° C. in 50 mM potassium phosphate pH 7.5. Each KD value is an average of three independent experiments and is shown with the associated standard error.
Inhibition experiments with the GSNOR inhibitors were conducted at 25° C. in 3 ml of 50 mM potassium phosphate (pH 7.5) containing 0.1 mM EDTA. […] A minimum of three inhibitor concentrations were used in these assays and the rate of NADH and GSNO consumption was determined spectrophotometrically by following change in absorbance at 340 nm. […]

GSNOR [2] = biological target: T1, GSNOR; assay: GSNOR inhibition at pH 10 (octanol, NAD+); assay type: biochemical; set-up: made in house; host or cells: E. coli; settings: pH 10 versus pH 7.5
Experimental: Referring now to Table 1, inhibition was studied at pH 10. These assays were performed in 0.1 M sodium glycine containing 1 mM octanol, 1 mM NAD^+, 0.1 mM EDTA and 50 μM inhibitor. Inhibition studies at pH 7.5 were performed in 50 mM potassium phosphate pH 7.5 that included 15 μM NADH, 10 μM GSNO, 0.1 mM EDTA and 50 μM inhibitor. The data file to a model consisted with partial inhibition and a hill coefficient of 2.4 in the inhibition curve. The screening for GSNOR inhibitors was performed using a library of 60,000 compounds from ChemDiv Inc in the Chemical Genomics Core facility at Indiana University. Screening was conducted in 384 well plates and involved incubating GSNOR with 12.5 μM compound, 1 mM each of NAD^+ and octanol in 0.1 M sodium glycine pH 10. Enzyme activity was determined by measuring the rate of production of NADH spectrophotometrically at 340 nm. Inhibition of GSNOR was calculated from the ratio of enzyme activity in the presence of compounds to that in no compound controls performed on the same assay plate. Following their identification from the high-throughput screening, the GSNOR inhibitory properties of the initial hits were confirmed at the pH 10 using 12-hydroxydodecanoic acid as the substrate and at pH 7.5 using GSNO as the substrate (see the brief description of Table 1 for details on how the assay was carried out.)

mouse aorta segments = assay: Wire myography, relaxation of aortic rings
Experimental: Referring now to FIG. 5, mouse aorta segments were equilibrated in oxygenated PSS (95% O2 and 5% CO2) at 37° C. Following equilibration, 1 μM phenylephrine was added to each ring for submaximal contraction. After stabilization, increasing concentrations (10−9 M to 10−4 M) of either compound 8 or sodium nitroprusside (SNP) was added to the rings and the tone of the rings determined (B) Inhibition of compound 8 induced relaxation of aortal rings by nitric oxide synthase inhibitor, L-NAME. To pre-equilibrated and submaximally contracted aortal rings with phenylephrine (1 micromolar), LNAME (500 micromolar) was added to the bath and allowed to incubate for 30 minutes. […] Each experiment was performed using two rings from three different mice and the mean (±SEM) for each response determined.
Mice were anesthetized with diethyl ether. A thoracotomy was performed to expose thoracic and abdominal aorta. A 25 gauge syringe was inserted into the apex of left ventricle and perfused free of blood with oxygenated Krebs Henseleit buffer. The right atrium was cut to provide an exit for blood. The aorta was removed and cleaned of fat and adventitia. The aorta was cut into 2-mm-long segments and mounted on a four-channel wire myograph (AD Instruments). Vessel rings were maintained in 10-ml organ baths with oxygenated PSS (95% O2 and 5% CO2) at 37° C. Rings were allowed to equilibrate for 80 minutes with the buffer in each organ bath changed every 20 min. One gram pretension was placed on each aortic ring (appropriate starting tension for optimal vasomotor function as determined in previous experiments). An eight-channel octal bridge (Powerlab) and data-acquisition software (Chart version 5.2.2) were used to record all force measurements. After equilibration for 80 min, 1 μM 27 phenylephrine was added to each ring for submaximal contraction. After stabilization, either compound 8 or sodium nitroprusside (SNP) was added to the rings and the tone of the rings determined. For the determination of SNP and ACh dose-response relationships, aortic rings were precontracted with 10−6 M PE, and SNP or compound 8 was then added in increasing concentrations from 10−9 M to 10−4 M. In a subset of experiments, L-NAME was added (500 μM final) to the bath and allowed to incubate for 30 minutes. After 30 minutes, compound 8 was added and the tone of the rings determined as described above.

RAW 264.7 cells = assay: s-Nitrosothiol accumulation in RAW 264.7 cells, biotin switch assay; assay type: cell-based, rat
Experimental: Referring now to FIG. 4, RAW 264.7 cells were cultured in DMEM containing 10% heat-inactivated serum. Cells were treated with 33 μM of Compound 8 for 0, 2, 4, 8, or 24 h alone or in combination with 1 mM NAME for 4 h (lane 4+N). At indicated times, the cells were quenched and the lysate was analyzed for s-nitrosothiol content by the biotin switch assay.
RAW 264.7 cells were cultured in 10% heat-inactivated serum containing DMEM. Cells were treated with 33 micromolar compound 8 for varied lengths of time alone or in combination with 1 mM NAME for 4 h (4+N). […] Briefly, free sulfydryls in ˜200 μg of cell lysate were blocked with 20 mM MMTS in 1 ml of HEN buffer (250 mM HEPES pH 7.7 containing 1 mM EDTA and 0.1 mM Neocupronine) containing 2% SDS at 50° C. for 20 min. Free MMTS was removed by gel-filtration spin columns and the blocked proteins were labeled with 1 mM Biotin-HPDP (Pierce) in presence or absence of 30 mM ascorbate and 2 μM CuCl for 2.5 hours.

[3] = direct comparison with sodium nitroprusside

T1 sequence (P11766 2-374 limits assumed): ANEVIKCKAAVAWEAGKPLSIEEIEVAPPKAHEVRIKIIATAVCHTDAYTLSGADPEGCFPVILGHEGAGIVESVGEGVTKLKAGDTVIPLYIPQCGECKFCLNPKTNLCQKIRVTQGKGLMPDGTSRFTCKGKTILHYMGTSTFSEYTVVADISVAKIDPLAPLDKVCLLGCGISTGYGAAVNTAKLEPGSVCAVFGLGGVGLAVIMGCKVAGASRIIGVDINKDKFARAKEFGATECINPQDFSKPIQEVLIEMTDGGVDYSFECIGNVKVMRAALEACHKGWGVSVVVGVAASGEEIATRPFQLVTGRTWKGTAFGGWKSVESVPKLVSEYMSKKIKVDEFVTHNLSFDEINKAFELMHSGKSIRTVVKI

N#Cc1ccccc1CSc1nc2ccsc2c(=O)n1Cc1ccc(C(=O)O)cc1 [Compound 8]
type of inhibition against varied NADH (GSNOR [1]): uncompetitive
GSNOR inhibition at pH 10 compared with pH 7.5 (GSNOR [2]): higher GSNOR inhibition at pH 10 than at pH 7.5
time to begin relaxation (mouse aorta segments): around 3 minutes
duration of sustained vessel relaxation (mouse aorta segments; 50 μM): up to 2 hours
relaxation of the vessels (mouse aorta segments; 50 μM): completely relaxed
time to complete relaxation (mouse aorta segments; 50 μM): ≤ 15 min
inhibition of vasorelaxation by L-NAME preincubation (mouse aorta segments; 500 μM L-NAME for 30 minutes, then 50 μM compound 8): roughly 58%
duration of the effect compared with SNP (mouse aorta segments; [3]): much longer than with SNP
potency at relaxing vascular smooth muscle compared with SNP (mouse aorta segments; [3]): less potent than SNP
EC50 (mouse aorta segments; rings precontracted with 1 μM phenylephrine, read-out: EC50 of vessel relaxation): 5 µM
time of peak effect on nitrosylation of cellular proteins (RAW 264.7 cells; 33 μM): around 8 hours
time to decrease to normal nitrosylation levels (RAW 264.7 cells; 33 μM): ≤ 24 h
accumulation of SNOs with simultaneous L-NAME (RAW 264.7 cells; 33 μM compound 8 + 1 mM NAME, 4 h): less
nitrosylation of cellular proteins (RAW 264.7 cells; 33 μM, 0-24 h): increased the nitrosylation of cellular proteins with time
